According to patent publication US20200002354A1, “HEXAHYDROPYRAZINOBENZ- OR -PYRIDO-OXAZEPINES CARRYING AN OXYGEN-CONTAINING SUBSTITUENT AND USE THEREOF IN THE TREATMENT OF 5-HT2C-DEPENDENT DISORDERS” (AbbVie Deutschland GmbH & Co. KG, priority 2015, published 2020):
Where a name gives a salt, the structure may show the parent alone. Read-outs that look alike come from different tables or passages of the source.

What was measured:
[1] = Metabolic stability in human liver microsomes, unbound intrinsic clearance; assay type: in vitro ADME; conditions: pH 7.4
Procedure: Samples of the tested compounds (0.5 μM) were preincubated together with human liver microsomes (0.25 mg of microsomal protein/mL) in 0.05 M potassium phosphate buffer of pH 7.4 in microtiter plates at 37° C. for 5 minutes. The reaction was started by adding NADPH (1.0 mM). After 0, 5, 10, 15, 20 and 30 minutes, an aliquot was removed, the reaction was cooled and stopped by adding twice the amount of quench solution consisting of acetonitrile/methanol 1:1, and containing 0.2 μM carbutamide as internal standard. The samples were frozen until analyzed. The remaining concentration of undegraded test substance was determined by liquid chromatography-tandem mass spectrometry (LC-MS/MS). The half-life (t1/2) was determined from the gradient of the ratio of the signal of (test substance/internal standard)/unit time plot, allowing the calculation of the half-life of the test substance, assuming first order kinetics, from the decrease in the concentration of the compound with time. The microsomal clearance (mClint) was calculated as follows: mClint=((ln(2)/t ½)/Microsomal Protein Concentration (mg/ml))*1000, leading to the unit of uL/min/mg. The scaled clearance (mClin_scaled) was calculated as mCLint_scaled=m CLint*(Microsomal Yield (mg/kg BW))/1000000*60, leading to the units L/h/kg. The Microsomal Yield is defined by the specifics of the used microsomes. Calculations were modified from references: Di, The Society for Biomolecular Screening, 2003, 453-462; Obach, D M D, 1999 vol 27. N 11, 1350-1359.
Calculation of Unbound Intrinsic Clearance
C1int unbound=C1 int/fu mic

human 5-HT2B receptor = molecular target: T1, human 5-HT2B receptor (Homo sapiens, UniProt P41595); test: Human 5-HT2B functional assay (calcium mobilisation in CHO-FlpIn cells, FLIPR); assay type: cell-based; conditions: based on agonism: EC50 5-HT2B/EC50 5-HT2C
T1 construct: expressed in transfected cells; host or cells: CHO-FlpIn
T1 sequence (P41595 whole entry): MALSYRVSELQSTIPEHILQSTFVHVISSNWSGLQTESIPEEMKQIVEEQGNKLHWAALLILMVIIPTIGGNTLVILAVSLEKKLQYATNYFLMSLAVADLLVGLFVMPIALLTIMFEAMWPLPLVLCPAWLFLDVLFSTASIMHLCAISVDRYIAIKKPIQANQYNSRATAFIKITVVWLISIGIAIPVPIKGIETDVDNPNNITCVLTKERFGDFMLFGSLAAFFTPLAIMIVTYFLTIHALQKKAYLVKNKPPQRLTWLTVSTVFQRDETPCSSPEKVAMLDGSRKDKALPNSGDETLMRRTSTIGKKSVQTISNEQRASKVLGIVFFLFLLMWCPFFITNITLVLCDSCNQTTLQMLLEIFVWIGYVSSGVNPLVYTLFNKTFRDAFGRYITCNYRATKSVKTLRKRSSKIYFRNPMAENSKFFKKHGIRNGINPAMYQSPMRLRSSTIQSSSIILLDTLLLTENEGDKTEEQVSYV
Procedure: 3. Human 5-HT2B Functional Assay
Functional activity on the 5-HT2B receptor was determined by testing the effect of the compounds I on calcium mobilisation in CHO-FlpIn cells, stably transfected with human 5-HT2B receptor. Cells were seeded into sterile black 384-well plates with clear bottom at 30,000 cells/well in a volume of 25 μl and grown overnight at 37° C., in 5% CO2 in tissue culture medium (“CHO-S-SFM II” by Invitrogen), containing 1% dialysed FCS and 50 μg/ml gentamicin (Invitrogen). On the next morning, medium was replaced by a serum free version of the same tissue culture medium for a further incubation for 4 hours at 37° C. and in 5% CO2. Cells were then loaded with a fluorescent calcium-sensitive dye in the presence of 0.07% probenecid for an hour at 37° C., according to the manufacturer's protocol (Ca5-Assay Kit, Molecular Devices), followed by an additional 60 min incubation at room temperature. Serial compound dilutions (final concentrations of 10^−10 to 10^−5M, prepared in HBSS+50 mM HEPES) were first added to the cells alone (“first addition” to assess agonism on the 5-HT2B receptor), then after 8 min, serotonin was added to the same wells at a final concentration of 10^−8 M (“second addition” to see potential antagonistic effect) and the maximal calcium response was determined using a FLIPR® Tetra instrument (Molecular Devices) in each of the two steps. The relative efficacy of the compounds was calculated as a percentage of the maximal effect induced by serotonin alone (defined as 100%). To determine EC50/IC50 values, concentration-response curves were fitted using a four-parameter logistic equation (IDBS Biobookml). Kb values were calculated from IC50 values, according to Cheng & Prusoff

human 5-HT2A receptor = molecular target: T2, human 5-HT2A receptor (Homo sapiens, UniProt P28223); test: Human 5-HT2A functional assay (calcium mobilisation in CHO-K1 cells, FLIPR); assay type: cell-based; conditions: based on agonism: EC50 5-HT2A/EC50 5-HT2C
T2 construct: expressed in transfected cells; host or cells: CHO-K1
T2 sequence (P28223 whole entry): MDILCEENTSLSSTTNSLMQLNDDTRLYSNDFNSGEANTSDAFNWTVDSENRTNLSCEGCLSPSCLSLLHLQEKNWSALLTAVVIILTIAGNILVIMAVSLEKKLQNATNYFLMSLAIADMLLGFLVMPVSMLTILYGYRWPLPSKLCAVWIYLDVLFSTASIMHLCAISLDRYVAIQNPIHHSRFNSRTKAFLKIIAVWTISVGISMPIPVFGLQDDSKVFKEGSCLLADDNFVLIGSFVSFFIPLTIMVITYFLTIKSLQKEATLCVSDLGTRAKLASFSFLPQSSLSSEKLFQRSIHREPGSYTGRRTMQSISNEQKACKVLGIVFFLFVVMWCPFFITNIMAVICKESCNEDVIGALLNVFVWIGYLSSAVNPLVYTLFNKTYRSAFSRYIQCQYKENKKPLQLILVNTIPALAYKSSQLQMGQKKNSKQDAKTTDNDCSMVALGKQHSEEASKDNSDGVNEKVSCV
Procedure: 2. Human 5-HT2A Functional Assay
Functional activity on the 5-HT2A receptor was determined by testing the effect of the compounds I on calcium mobilisation in CHO-K1 cells, stably transfected with human 5-HT2A receptor. Cells were seeded into sterile black 384-well plates with clear bottom at 25,000 cells/well in a volume of 25 μl and grown for 5-6 hours at 37° C., in 5% CO2 in tissue culture medium (“Ultra CHO” by LONZA), containing 1% dialysed FCS and 50 μg/ml gentamicin (Invitrogen). After this incubation, medium was replaced by a serum free version of the same tissue culture medium followed by incubation overnight at 37° C. and in 5% CO2. Cells were then loaded with a fluorescent calcium-sensitive dye in the presence of 0.07% probenecid for an hour at 37° C., according to the manufacturer's protocol (Ca5-Assay Kit, Molecular Devices), followed by an additional 60 min incubation at room temperature. Serial compound dilutions (final concentrations of 10^−10 to 10^−5M, prepared in HBSS+50 mM HEPES) were first added to the cells alone (“first addition” to assess agonism on the 5-HT2A receptor), then after 8 min, serotonin was added to the same wells at a final concentration of 3×10^−8 M (“second addition” to see potential antagonistic effect) and the maximal calcium response was determined using a FLIPR® Tetra instrument (Molecular Devices) in each of the two steps. The relative efficacy of the compounds was calculated as a percentage of the maximal effect induced by serotonin alone (defined as 100%). To determine EC50/IC50 values, concentration-response curves were fitted using a four-parameter logistic equation (IDBS Biobookml). Kb values were calculated from IC50 values, according to Cheng & Prusoff

5-HT2C receptor = molecular target: T3, 5-HT2C receptor (Homo sapiens, UniProt P28335); test: Human 5-HT2C functional assay (beta-arrestin2 recruitment, U2OS_HTR2C_β-Arrestin cells); assay type: cell-based; conditions: for Emax: relative efficacy vs maximal effect induced by 5-HT (defined as 100%)
T3 construct: host or cells: U2OS
T3 sequence (P28335 33-458): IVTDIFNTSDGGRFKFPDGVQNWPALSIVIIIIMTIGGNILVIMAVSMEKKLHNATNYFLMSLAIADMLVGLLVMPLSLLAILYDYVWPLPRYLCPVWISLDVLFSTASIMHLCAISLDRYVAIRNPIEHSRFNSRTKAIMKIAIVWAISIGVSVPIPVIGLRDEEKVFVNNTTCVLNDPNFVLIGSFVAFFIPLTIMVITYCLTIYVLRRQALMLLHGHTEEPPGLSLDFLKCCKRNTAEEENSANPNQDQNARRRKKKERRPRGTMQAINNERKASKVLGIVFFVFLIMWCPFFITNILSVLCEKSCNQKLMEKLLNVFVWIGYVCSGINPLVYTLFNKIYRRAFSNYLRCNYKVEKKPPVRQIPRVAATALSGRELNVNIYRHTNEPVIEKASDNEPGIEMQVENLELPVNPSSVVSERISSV
T3 sequence (P32121 whole entry partner): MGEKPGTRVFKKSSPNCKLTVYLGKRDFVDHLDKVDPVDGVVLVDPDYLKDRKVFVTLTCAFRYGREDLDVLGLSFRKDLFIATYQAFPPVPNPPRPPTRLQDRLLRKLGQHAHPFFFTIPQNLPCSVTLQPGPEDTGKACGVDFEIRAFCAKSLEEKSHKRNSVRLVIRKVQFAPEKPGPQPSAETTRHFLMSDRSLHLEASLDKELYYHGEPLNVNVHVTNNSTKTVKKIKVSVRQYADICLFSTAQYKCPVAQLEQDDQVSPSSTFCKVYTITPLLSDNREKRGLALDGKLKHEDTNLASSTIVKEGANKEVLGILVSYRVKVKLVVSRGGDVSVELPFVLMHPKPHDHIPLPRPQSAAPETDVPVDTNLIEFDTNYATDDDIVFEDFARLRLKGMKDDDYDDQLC
Procedure: 1. Human 5-HT2C Functional Assay
The functional activity of compounds of formula I was assayed by incubation with U2OS_HTR2C_β-Arrestin cells (DiscoverX, 93-0289C3) to induce beta-arrestin2 recruitment to the 5-HT2C receptor. The agonist-induced recruitment and proximity of the receptor and beta-arrestin2 leads to complementation and formation of active β-galactosidase. The enzyme complementation results in enzyme activity, which is measured following the termination of the agonist incubation using DiscoveRx's detection reagent, which contains a chemiluminescent substrate which produces a high intensity signal. Cells were plated and a medium-change to a 1% serum containing medium was performed 24 h later. The next day, test compounds were added and incubated for 1.5 h before addition of detection reagent.
The response produced was measured and compared with the response produced by 10 [mu]M 5-HT or the maximal effect induced by 5-HT (defined as 100%) to which it was expressed as a percentage response (relative efficacy).

[2] = liver microsomes, unbound intrinsic clearance (human), Clint unbound = Cl int/fu mic, read-out: Cl int, mic unb. (h)
[3] = Potency (EC50 5-HT2C) in functional assay, agonism, read-out: EC50 5-HT2C
[4] = microsomes, unbound intrinsic clearance (human), Clint unbound = Cl int/fu mic, read-out: Cl int, mic unb. (h)

| SMILES | CLint scaled at 0.5 μM ([1]; human, microsomes) | Selectivity over 5-HT2B (human 5-HT2B receptor) | Selectivity over 5-HT2A (human 5-HT2A receptor) | EC50 (5-HT2C receptor) | Emax (5-HT2C receptor) | CLint scaled at 0.5 μM [1, 2] | EC50 (5-HT2C receptor; [3]) | CLint scaled at 0.5 μM [1, 4] |
| --- | --- | --- | --- | --- | --- | --- | --- | --- |
| COC[C@@H]1C[C@@H]2CNCCN2c2ccccc2O1.O=C(O)C(F)(F)F [Example 3, (4aR,6S)-6-(Methoxymethyl)-2,3,4,4a,5,6-hexahydro-1H-pyrazino[2,1-d][1,5]benzoxazepine; 2,2,2-trifluoroacetic acid] | < 83.3 mL/min/kg | + (from 10 to 30) | + (from 10 to 30) | 200 to 1000 nM | 50 to 70% |  |  |  |
| COC[C@@H]1C[C@@H]2CNCCN2c2cccc(OC(F)F)c2O1 [Example 42, (4aR,6S)-8-(Difluoromethoxy)-6-(methoxymethyl)-2,3,4,4a,5,6-hexahydro-1H-pyrazino[2,1-d][1,5]benzoxazepine] |  |  | + (from 10 to 30) |  | > 70% | < 83.3 mL/min/kg | < 20 nM |  |
| Cl.OC[C@@H]1C[C@@H]2CNCCN2c2c(F)c(F)cc(Cl)c2O1 [Example 20, [(4aR,6S)-8-Chloro-10,11-difluoro-2,3,4,4a,5,6-hexahydro-1H-pyrazino[2,1-d][1,5]benzoxazepin-6-yl]methanol hydrochloride] |  |  | +++ (>100) |  | > 70% | < 83.3 mL/min/kg | 20 to 200 nM |  |
| COC[C@@H]1C[C@@H]2CNCCN2c2cc(F)cc(C3CC3)c2O1.Cl [Example 49, (4aR,6S)-8-Cyclopropyl-10-fluoro-6-(methoxymethyl)-2,3,4,4a,5,6-hexahydro-1H-pyrazino[2,1-d][1,5]benzoxazepine hydrochloride] |  |  | ++ (from >30 to 100) |  | > 70% | < 83.3 mL/min/kg | < 20 nM |  |
| COC[C@@H]1C[C@@H]2CNCCN2c2cc(F)cc(C)c2O1.Cl [Example 41, (4aR,6S)-10-Fluoro-6-(methoxymethyl)-8-methyl-2,3,4,4a,5,6-hexahydro-1H-pyrazino[2,1-d][1,5]benzoxazepine hydrochloride] |  |  | +++ (>100) |  | > 70% | < 83.3 mL/min/kg | < 20 nM |  |
| Cl.OC[C@@H]1C[C@@H]2CNCCN2c2cccc(Cl)c2O1 [Example 14, [(4aR,6S)-8-Chloro-2,3,4,4a,5,6-hexahydro-1H-pyrazino[2,1-d][1,5]benzoxazepin-6-yl]methanol hydrochloride] |  |  | +++ (>100) |  | > 70% |  | 20 to 200 nM | < 83.3 mL/min/kg |
| COC[C@@H]1C[C@@H]2CNCCN2c2cccc(F)c2O1.Cl [Example 50, (4aR,6S)-8-Fluoro-6-(methoxymethyl)-2,3,4,4a,5,6-hexahydro-1H-pyrazino[2,1-d][1,5]benzoxazepine hydrochloride] |  |  | ++ (from >30 to 100) |  | > 70% | < 83.3 mL/min/kg | 20 to 200 nM |  |
| COC[C@@H]1C[C@@H]2CNCCN2c2cc(Cl)cc(F)c2O1 [Example 25, (4aR,6S)-10-Chloro-8-fluoro-6-(methoxymethyl)-2,3,4,4a,5,6-hexahydro-1H-pyrazino[2,1-d][1,5]benzoxazepine] |  |  | +++ (>100) |  | > 70% | < 83.3 mL/min/kg | 20 to 200 nM |  |
| COC[C@@H]1C[C@@H]2CNCCN2c2c(F)c(F)c(F)c(Cl)c2O1.Cl [Example 55, (4aR,6S)-8-Chloro-9,10,11-trifluoro-6-(methoxymethyl)-2,3,4,4a,5,6-hexahydro-1H-pyrazino[2,1-d][1,5]benzoxazepine hydrochloride] |  | +++ (>100) | +++ (>100) |  | > 70% |  | < 20 nM |  |
| COC[C@@H]1C[C@@H]2CNCCN2c2nccc(C(F)F)c2O1.O=C(O)C(F)(F)F [Example 27, (6S,7aR)-4-(Difluoromethyl)-6-(methoxymethyl)-7,7a,8,9,10,11-hexahydro-6H-pyrazino[1,2-d]pyrido[3,2-b][1,4]oxazepine; 2,2,2-trifluoroacetic acid] |  |  | ++ (from >30 to 100) |  | > 70% |  | 20 to 200 nM | < 83.3 mL/min/kg |
| OC[C@@H]1C[C@@H]2CNCCN2c2cc(F)cc(Cl)c2O1 [Example 17, [(4aR,6S)-8-Chloro-10-fluoro-2,3,4,4a,5,6-hexahydro-1H-pyrazino[2,1-d][1,5]benzoxazepin-6-yl]methanol hydrochloride] |  |  |  |  | > 70% | < 83.3 mL/min/kg | < 20 nM |  |
| Cl.OC[C@@H]1C[C@@H]2CNCCN2c2cc(F)cc(C(F)F)c2O1 [Example 23, [(4aR,6S)-8-(Difluoromethyl)-10-fluoro-2,3,4,4a,5,6-hexahydro-1H-pyrazino[2,1-d][1,5]benzoxazepin-6-yl]methanol hydrochloride] |  |  | + (from 10 to 30) |  | > 70% | < 83.3 mL/min/kg | < 20 nM |  |
| COC[C@@H]1C[C@@H]2CNCCN2c2cc(OC)cc(Cl)c2O1.Cl [Example 44, (4aR,6S)-8-Chloro-10-methoxy-6-(methoxymethyl)-2,3,4,4a,5,6-hexahydro-1H-pyrazino[2,1-d][1,5]benzoxazepine hydrochloride] |  | ++ (from >30 to 100) |  |  | > 70% | < 83.3 mL/min/kg | 20 to 200 nM |  |
| COC[C@@H]1C[C@@H]2CNCCN2c2cccc(C3CC3)c2O1.Cl [Example 48, (4aR,6S)-8-Cyclopropyl-6-(methoxymethyl)-2,3,4,4a,5,6-hexahydro-1H-pyrazino[2,1-d][1,5]benzoxazepine hydrochloride] |  |  | + (from 10 to 30) |  | > 70% | < 83.3 mL/min/kg | < 20 nM |  |
